Data as given in patent US7265152B2 (ViroPharma Incorporated, priority 2002, dated 2007).
Like-named read-outs stand apart in the source and are kept apart here.

How the values were obtained:
[1] = target: T1, HCV NS5B (Hepatitis C virus genotype 1b, UniProt Q9WMX2); assay: Inhibition of viral RNA-dependent RNA polymerase (RdRp), in vitro biochemical assay; design: species or system HCV genotype 1b virus (BB7); conditions: read-out: HCV pol-BB7 IC50
T1 construct: fusion protein, of which the carboxyl terminal 21 amino acids were removed to enhance its solubility; His tag (GSHHHHHH); made in house; host or cells: E. coli
How it was run: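 IC50 values are the concentrations that halve in vitro RNA synthesis by HCV NS5B polymerase. The enzyme was a C-terminally truncated (Δ21), His-tagged genotype 1b (BB7 consensus) protein purified from E. coli.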

[2] = system: HCV replicon (BB7 sequence) in Huh-7-Clone A cells; assay: HCV replicon assay: ELISA of NS5A protein in replicon-containing cells (Inhibition of Viral RNA Replication); assay type: cell-based; conditions: Hepatitis C virus, HCV replicon assay, read-out: Replicon
How it was run: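 EC50 taken from an 8-point serially diluted dose curve, with NS5A level as read-out: fixed cells probed with primary monoclonal and HRP-conjugated secondary, TMB developed 30 min, OD 650 nm. Compound exposure 72 h in Huh-7-Clone A replicon cells (BB7 sequence).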

[3] = HCV NS5B RdRp, BB7, activity class
[4] = HCV NS5B polymerase, BB7 (genotype 1b), values given as range classes A-D
[5] = ranges of 50% effective concentration (EC50)

Row | Structure (SMILES) | IC50 [1, 3] | EC50 ([2]; ranges of EC50) | IC50 [1, 4] | EC50 [2, 5]
1 | CCN(CC)c1nc(COc2cc3c(C(=O)NC)c(-c4ccc(F)cc4)oc3cc2N(C)S(C)(=O)=O)ns1 [Example 373, 5-(5-Diethylamino-[1,2,4]thiadiazol-3-ylmethoxy)-2-(4-fluoro-phenyl)-6-(methanesulfonyl-methyl-amino)-benzofuran-3-carboxylic acid methylamide] | ≤ 500 nM | < 1000 nM |  | 
2 | CNC(=O)c1c(-c2ccc(F)cc2)oc2cc(N(C)S(C)(=O)=O)c(OCc3nsc(NCC4CC4)n3)cc12 [Example 374, 5-[5-(Cyclopropylmethyl-amino)-[1,2,4]thiadiazol-3-ylmethoxy]-2-(4-fluoro-phenyl)-6-(methanesulfonyl-methyl-amino)-benzofuran-3-carboxylic acid methylamide] | ≤ 500 nM | < 1000 nM |  | 
3 | CNC(=O)c1c(-c2ccc(F)cc2)oc2cc(C(C)(O)CN)c(OC(C)C)cc12 (stereo not drawn) [Example 375, 6-(2-Amino-1-hydroxy-1-methyl-ethyl)-2-(4-fluoro-phenyl)-5-isopropoxy-benzofuran-3-carboxylic acid methylamide] | 500 to 5000 nM | < 30000 nM |  | 
4 | CNC(=O)c1c(-c2ccc(F)cc2)oc2cc(C(C)(C)N)c(OC(C)C)cc12 [Example 376, 6-(1-Amino-1-methyl-ethyl)-2-(4-fluoro-phenyl)-5-isopropoxy-benzofuran-3-carboxylic acid methylamide] | ≤ 500 nM | < 1000 nM |  | 
5 | CNC(=O)c1c(-c2ccc(F)cc2)oc2cc(C3CCCN3C(=O)NC)c(OC)cc12 (stereo not drawn) [Example 377, 2-[2-(4-Fluoro-phenyl)-5-methoxy-3-methylcarbamoyl-benzofuran-6-yl]-pyrrolidine-1-carboxylic acid methylamide] | ≤ 500 nM | < 10000 nM |  | 
6 | CCNC(=O)c1c(-c2ccc(F)cc2)oc2cc(-c3c(C)noc3C)c(OC)cc12 [Example 378, 6-(3,5-Dimethyl-isoxazol-4-yl)-2-(4-fluoro-phenyl)-5-methoxy-benzofuran-3-carboxylic acid ethylamide] | ≤ 500 nM | < 1000 nM |  | 
7 | COc1cc2c(C(=O)NC(C)C)c(-c3ccc(F)cc3)oc2cc1-c1c(C)noc1C [Example 379, 6-(3,5-Dimethyl-isoxazol-4-yl)-2-(4-fluoro-phenyl)-5-methoxy-benzofuran-3-carboxylic acid isopropylamide] | 500 to 5000 nM | > 30000 nM |  | 
8 | COc1cc2c(C(=O)NC3CC3)c(-c3ccc(F)cc3)oc2cc1-c1c(C)noc1C [Example 380, 6-(3,5-Dimethyl-isoxazol-4-yl)-2-(4-fluoro-phenyl)-5-methoxy-benzofuran-3-carboxylic acid cyclopropylamide] | ≤ 500 nM | < 1000 nM |  | 
9 | CNC(=O)c1c(-c2ccc(F)cc2)oc2cc(C3(C)CNC(=O)O3)c(OC(C)C)cc12 (stereo not drawn) [Example 381, 2-(4-Fluoro-phenyl)-5-isopropoxy-6-(5-methyl-2-oxo-oxazolidin-5-yl)-benzofuran-3-carboxylic acid methylamide] | ≤ 500 nM | < 1000 nM |  | 
10 | CNC(=O)c1c(-c2ccc(F)cc2)oc2cc(N(C)S(C)(=O)=O)c(OCC(=O)OC(C)(C)C)cc12 [Example 382, [2-(4-Fluoro-phenyl)-6-(methanesulfonyl-methyl-amino)-3-methylcarbamoyl-benzofuran-5-yloxy]-acetic acid tert-butyl ester] |  |  | ≤ 500 nM | < 1000 nM
11 | CNC(=O)c1c(-c2ccc(F)cc2)oc2cc(-c3nc(C)n[nH]3)c(OC)cc12 [Example 383, 2-(4-Fluoro-phenyl)-5-methoxy-6-(5-methyl-2H-[1,2,4]triazol-3-yl)-benzofuran-3-carboxylic acid methylamide] |  |  | 500 to 5000 nM | < 10000 nM
12 | CNC(=O)c1c(-c2ccc(F)cc2)oc2cc(C(C)(C)N)c(OC)cc12 [Example 384, 6-(1-Amino-1-methyl-ethyl)-2-(4-fluoro-phenyl)-5-methoxy-benzofuran-3-carboxylic acid methylamide] |  |  | 500 to 5000 nM | < 30000 nM
13 | CNC(=O)c1c(-c2ccc(F)cc2)oc2cc(C(C)(C)NC(C)=O)c(OC)cc12 [Example 385, 6-(1-Acetylamino-1-methyl-ethyl)-2-(4-fluoro-phenyl)-5-methoxy-benzofuran-3-carboxylic acid methylamide] |  |  | ≤ 500 nM | < 1000 nM
14 | CNC(=O)c1c(-c2ccc(F)cc2)oc2cc(N(C)S(C)(=O)=O)c(OCC(=O)O)cc12 [Example 386, [2-(4-Fluoro-phenyl)-6-(methanesulfonyl-methyl-amino)-3-methylcarbamoyl-benzofuran-5-yloxy]-acetic acid] |  |  | ≤ 500 nM | < 30000 nM
15 | CNC(=O)c1c(-c2ccc(F)cc2)oc2cc(-c3nc(C)nn3C)c(OC)cc12 [Example 387, 6-(2,5-Dimethyl-2H-[1,2,4]triazol-3-yl)-2-(4-fluoro-phenyl)-5-methoxy-benzofuran-3-carboxylic acid methylamide] |  |  | 500 to 5000 nM | < 10000 nM
16 | CNC(=O)c1c(-c2ccc(F)cc2)oc2cc(N(C)S(C)(=O)=O)c(OCc3nccs3)cc12 [Example 388, 2-(4-Fluoro-phenyl)-6-(methanesulfonyl-methyl-amino)-5-(thiazol-2-ylmethoxy)-benzofuran-3-carboxylic acid methylamide] |  |  | ≤ 500 nM | < 1000 nM
17 | CNC(=O)c1c(-c2ccc(F)cc2)oc2cc(C3(C)NC(=O)NC3=O)c(OC)cc12 (stereo not drawn) [Example 389, 2-(4-Fluoro-phenyl)-5-methoxy-6-(4-methyl-2,5-dioxo-imidazolidin-4-yl)-benzofuran-3-carboxylic acid methylamide] |  |  | ≤ 500 nM | < 10000 nM
18 | CNC(=O)c1c(-c2ccc(F)cc2)oc2cc(C(C)(C)NS(C)(=O)=O)c(OC)cc12 [Example 390, 2-(4-Fluoro-phenyl)-6-(1-methanesulfonylamino-1-methyl-ethyl)-5-methoxy-benzofuran-3-carboxylic acid methylamide] |  |  | ≤ 500 nM | < 10000 nM
19 | CNC(=O)c1c(-c2ccc(F)cc2)oc2cc(N(Cc3cccc(CBr)n3)S(C)(=O)=O)c(OCc3cccc(CBr)n3)cc12 [Example 391, 5-(6-Bromomethyl-pyridin-2-ylmethoxy)-6-[(6-bromomethyl-pyridin-2-ylmethyl)-methanesulfonyl-amino] 2-(4-fluoro-phenyl)-benzofuran-3-carboxylic acid methylamide] |  |  | ≤ 500 nM | < 10000 nM
20 | CCOC(=O)c1csc(COc2cc3c(C(=O)NC)c(-c4ccc(F)cc4)oc3cc2N(C)S(C)(=O)=O)n1 [Example 392, 2-[2-(4-Fluoro-phenyl)-6-(methanesulfonyl-methyl-amino)-3-methylcarbamoyl-benzofuran-5-yloxymethyl]-thiazole-4-carboxylic acid ethyl ester] |  |  | ≤ 500 nM | < 1000 nM
21 | CNC(=O)c1c(-c2ccc(F)cc2)oc2cc(N(C)S(C)(=O)=O)c(OCc3nc(C(=O)O)cs3)cc12 [Example 393, 2-[2-(4-Fluoro-phenyl)-6-(methanesulfonyl-methyl-amino)-3-methylcarbamoyl-benzofuran-5-yloxymethyl]-thiazole-4-carboxylic acid] |  |  | ≤ 500 nM | > 30000 nM
22 | CNC(=O)c1c(-c2ccc(F)cc2)oc2cc(N(C)C)c(OC)cc12 [Example 394, 6-Dimethylamino-2-(4-fluoro-phenyl)-5-methoxy-benzofuran-3-carboxylic acid methylamide] |  |  | ≤ 500 nM | < 1000 nM
23 | CNC(=O)c1c(-c2ccc(F)cc2)oc2cc(N(C)S(C)(=O)=O)c(OCC#N)cc12 [Example 395, 5-Cyanomethoxy-2-(4-fluoro-phenyl)-6-(methanesulfonyl-methyl-amino)-benzofuran-3-carboxylic acid methylamide] |  |  | ≤ 500 nM | < 1000 nM
24 | CNC(=O)c1c(-c2ccc(F)cc2)oc2cc(N(C)S(C)(=O)=O)c(OCc3cc(C)on3)cc12 [Example 396, 2-(4-Fluoro-phenyl)-6-(methanesulfonyl-methyl-amino)-5-(5-methyl-isoxazol-3-ylmethoxy)-benzofuran-3-carboxylic acid methylamide] |  |  | ≤ 500 nM | < 1000 nM
25 | CNC(=O)c1c(-c2ccc(F)cc2)oc2cc(N(C)S(C)(=O)=O)c(OCc3nnsc3Cl)cc12 [Example 397, 5-(5-Chloro-[1,2,3]thiadiazol-4-ylmethoxy)-2-(4-fluoro-phenyl)-6-(methanesulfonyl-methyl-amino)-benzofuran-3-carboxylic acid methylamide] |  |  | ≤ 500 nM | < 1000 nM
26 | CNC(=O)c1c(-c2ccc(F)cc2)oc2cc(N(C)S(C)(=O)=O)c(OCc3nccn3C)cc12 [Example 398, 2-(4-Fluoro-phenyl)-6-(methanesulfonyl-methyl-amino)-5-(1-methyl-1H-imidazol-2-ylmethoxy)-benzofuran-3-carboxylic acid methylamide] |  |  | ≤ 500 nM | < 1000 nM
27 | CNC(=O)c1c(-c2ccc(F)cc2)oc2cc(-c3c(C)noc3C)c(OCc3cscn3)cc12 [Example 401, 6-(3,5-Dimethyl-isoxazol-4-yl)-2-(4-fluoro-phenyl)-5-(thiazol-4-ylmethoxy)-benzofuran-3-carboxylic acid methylamide] |  |  | ≤ 500 nM | < 1000 nM
